Measured values: paper PMC7093416, “Selective USP7 inhibition elicits cancer cell killing through a p53-dependent mechanism” (Scientific Reports, 2020)

Key:
USP7 catalytic domain = biological target: T1, USP7 catalytic domain (Homo sapiens, UniProt Q93009); assay: Intact MS / CE-MS labeling of purified USP7 catalytic domain; type: binding; details: 2.5-fold molar excess compound
T1 construct: catalytic domain (208–560) used were cloned as described; inferred from Ni-NTA purification; made in house; host or cells: E. coli BL21 (DE3)
Description: Purified USP7 catalytic domain was diluted to 20 μM in 10 μL labeling buffer (20 mM HEPES pH 7.5, 150 mM NaCl, 1 mM TCEP) and incubated for the indicated times with 50 μM (2.5×) compound. After incubation, samples were flash frozen in liquid nitrogen and stored at −80 °C until analysis.
Intact mass analysis was performed by injecting 5 µg USP7 catalytic domain onto a self-packed reversed phase column (1/32” O.D. × 500 um I.D., 5 cm of POROS 10R2 resin). After desalting, protein was eluted with an HPLC gradient (0–100% B in 4 minutes, A = 0.2 M acetic acid in water, B = 0.2 M acetic acid in acetonitrile, flow rate ~30 µL/min) into an LTQ ion trap mass spectrometer (ThermoFisher Scientific, San Jose, CA). Mass spectra were processed using MagTran1.03b2[52].
Peptides were desalted using SP3[53], dried by vacuum centrifugation, and reconstituted in 1% formic acid/50% acetonitrile with 100 mM ammonium acetate. Peptides were then analyzed by CE-MS using a ZipChip CE system and autosampler (908 Devices, Boston, MA) interfaced to a QExactive HF mass spectrometer (ThermoFisher Scientific, San Jose, CA). Peptide solution was loaded for 30 seconds, and the mass spectrometer was operated in data dependent mode and subjected the 5 most abundant ions in each MS scan (60k resolution, 3E6 target, lock mass enabled) to MS/MS (15k resolution, 1E5 target, 100 ms max inject time). […]

ANXA5 = biological target: T2, ANXA5 (Homo sapiens, UniProt P08758); assay: XL177A-DTB chemoproteomic profiling with XL177A competition, ANXA5; type: binding; details: ANXA5 reporter ion intensity
T2 construct: endogenous in cells; host or cells: HEK 293AD lysate
T2 sequence (P08758 1-320): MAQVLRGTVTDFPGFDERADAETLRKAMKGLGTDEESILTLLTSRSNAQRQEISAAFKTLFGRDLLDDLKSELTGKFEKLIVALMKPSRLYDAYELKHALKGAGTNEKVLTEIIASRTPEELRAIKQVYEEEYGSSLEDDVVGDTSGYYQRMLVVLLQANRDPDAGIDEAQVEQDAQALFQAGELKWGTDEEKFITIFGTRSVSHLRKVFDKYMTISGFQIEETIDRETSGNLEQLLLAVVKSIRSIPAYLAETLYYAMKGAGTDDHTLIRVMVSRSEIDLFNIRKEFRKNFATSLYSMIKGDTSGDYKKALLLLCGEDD
Description: HEK 293AD cells were lysed as described above, and the lysate was cleared by centrifugation. Samples were diluted to 10 mg/mL, and 200 μL lysate (2 mg protein total) was incubated with the indicated concentrations of XL177A for 4 hours at RT, then 2 μM of WH114A for 4 additional hours. SDS was added to a final concentration of 1.2% (27.2 μL of a 10% stock), and denatured by heating to 80 °C for 5 minutes. After cooling to RT, 1125 μL 1X PBS was added to dilute the final SDS concentration to 0.2%. 50 μL streptavidin agarose slurry was added to each sample, followed by incubation at RT for 3 hours. After streptavidin enrichment, samples were washed vigorously (2×0.2% SDS, 3x PBS, 3x ddH2O). After the final wash, all supernatant was removed using a flat-bottom tip, and the resin was flash frozen and stored at −80 °C until workup for TMT labeling.
To remove rapigest, recovered supernatants were acidified with 10% TFA, incubated at 37 °C for 45 minutes, and centrifuged at 14,000 rpm for 15 minutes at 4 °C. Peptides were then desalted by C18, and dried by vacuum centrifugation. Dried peptides were reconstituted in 50 mM pH8.0 TEAB and labeled with TMT reagent at RT for 1 hour. TMT reactions were pooled and treated with hydroxylamine according to the manufacturer’s instructions. Peptide mixtures were then dried, reconstituted in 50 mM ammonium bicarbonate and desalted by SP3[53]. Eluted peptides were then analyzed by nanoflow LC-MS/MS as described[64] with a NanoAcquity UPLC system (Waters, Milford, MA) interfaced to a QExactive HF mass spectrometer (Thermofisher Scientific, San Jose, CA). TMT labeled peptides were injected onto a precolumn (4 cm POROS 10R2, Applied Biosystems, Framingham, MA), resolved on an analytical column (30 µm I.D. × 50 cm packed with 5 µm Monitor C18) and introduced to the mass spectrometer by ESI (spray voltage = 3.5 kV, flow rate ~30 nL/min). The mass spectrometer was operated in data dependent mode such that the 15 most abundant ions in each MS scan (m/z 300–2000, 120 K resolution, target = 3E6, lock mass for 445.120025 enabled) were subjected to MS/MS (m/z 100–2000, 30 K resolution, target = 1E5, max fill time = 100 ms). Dynamic exclusion was selected with a repeat count of 1 and an exclusion time of 30 seconds. MS/MS data was extracted to.mgf using mulitplierz scripts[54],[55] and searched against a forward-reverse human NCBI refseq database using Mascot version 2.6. Search parameters specified fixed carbamidomethylation of cysteine, fixed N-terminal and lysine TMT labelling, and variable oxidation (methionine). Additional multiplierz scripts were used to filter results to 1% FDR and derive protein-level aggregate reporter ion intensities using peptides mapping uniquely into the genome.

[1] = XL177A-DTB pulldown, HEK293AD lysate pre-treated 100nM XL177A
[2] = XL177A-DTB pulldown, HEK293AD lysate pre-treated 1uM XL177A
[3] = XL177A-DTB pulldown, HEK293AD lysate pre-treated 10uM XL177A
[4] = average of Run 1 and Run 2, 100nM XL177A
[5] = average of Run 1 and Run 2, 1uM XL177A
[6] = average of Run 1 and Run 2, 10uM XL177A

T1 sequence (Q93009 208-560): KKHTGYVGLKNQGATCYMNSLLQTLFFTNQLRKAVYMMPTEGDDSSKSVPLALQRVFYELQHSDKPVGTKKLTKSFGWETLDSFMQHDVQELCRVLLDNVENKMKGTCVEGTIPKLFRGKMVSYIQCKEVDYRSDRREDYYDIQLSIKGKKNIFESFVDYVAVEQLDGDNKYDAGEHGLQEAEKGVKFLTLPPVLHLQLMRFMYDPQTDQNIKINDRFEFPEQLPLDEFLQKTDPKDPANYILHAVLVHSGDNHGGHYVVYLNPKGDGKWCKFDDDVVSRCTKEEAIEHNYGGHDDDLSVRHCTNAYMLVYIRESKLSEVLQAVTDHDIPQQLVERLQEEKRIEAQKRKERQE

CN1CCN(CCC(=O)Nc2ccc3c(=O)n(CC4(O)CCN(C(=O)[C@@H](CCCNC(=O)c5ccc6c(Cl)c7c(nc6c5)CCCC7)Cc5ccccc5)CC4)cnc3c2)CC1 [XL177A]
labeling of USP7 catalytic domain by MS (USP7 catalytic domain): Quantitative labeling
Run 1 100nM 1 (ANXA5; [1]): 178152
Run 1 100nM 2 (ANXA5; [1]): 165955
Run 1 100nM 3 (ANXA5; [1]): 128000
Run 2 100nM 1 (ANXA5; [1]): 93111
Run 2 100nM 2 (ANXA5; [1]): 89444
Run 2 100nM 3 (ANXA5; [1]): 79751
Run 1 1uM 1 (ANXA5; [2]): 144604
Run 1 1uM 2 (ANXA5; [2]): 674321
Run 1 1uM 3 (ANXA5; [2]): 223998
Run 2 1uM 1 (ANXA5; [2]): 92176
Run 2 1uM 2 (ANXA5; [2]): 333280
Run 2 1uM 3 (ANXA5; [2]): 123099
Run 1 10uM 1 (ANXA5; [3]): 147137
Run 1 10uM 2 (ANXA5; [3]): 166473
Run 2 10uM 1 (ANXA5; [3]): 88314
Run 2 10uM 2 (ANXA5; [3]): 102591
AVE 100nM 1 (ANXA5; [4]): 135632
AVE 100nM 2 (ANXA5; [4]): 127700
AVE 100nM 3 (ANXA5; [4]): 103876
AVE 1uM 1 (ANXA5; [5]): 118390
AVE 1uM 2 (ANXA5; [5]): 503800
AVE 1uM 3 (ANXA5; [5]): 173548
AVE 10uM 1 (ANXA5; [6]): 117726
AVE 10uM 2 (ANXA5; [6]): 134532
